{"source": "patent US20250040548A1", "about": "“Herbicidal compositions comprising saflufenacil” (BASF SF, priority 2023, published 2025)", "key": {"DIGSA": {"test_system": "DIGSA", "test": "Post-emergence application in field trials (Examples 2 and 3)", "format": "in vivo, Digitaria sanguinales", "settings": "A-1 12.5 g ai/ha", "experimental": "(§1) In the examples below, using the method of S. R. Colby (1967) “Calculating synergistic and antagonistic responses of herbicide combinations”, Weeds 15, p. 22ff., the value E, which is expected if the activity of the individual active compounds is only additive, was calculated.\n(§2) [formula] • where • X=percent activity using active herbicide A at an application rate a; • Y=percent activity using active saflufenacil at an application rate b; • E=expected activity (in %) by A+B at application rates a+b.\n(§3) If the value found experimentally is higher than the value E calculated according to Colby, a synergistic effect is present.\n(§4) On field test sites, natural weed infestation or seeded weeds were treated post-emergence of the weeds.\n(§5) For the post emergence treatment, the weedy plants were treated as indicated below. The herbicidal compositions were, together with the adjuvant(s) as indicated, suspended or emulsified in water (200 l/ha unless indicated otherwise) as distribution medium and sprayed with commercial flat fan nozzles.\n(§6) In the following experiments, the herbicidal activity for the individual herbicidal compositions (solo and mixture applications) was assessed the indicated days after treatment (DAT). The assessments for the damage on undesired weeds caused by the composition was carried out using a scale from 0 to 100%, compared to the untreated control plants. Here, 0 means no damage and 100 means complete destruction of the plants.\nas §5, with “I/ha” for “l/ha”"}, "ECHCG": {"test_system": "ECHCG", "test": "Post-emergence application in field trials (Examples 2 and 3)", "format": "in vivo, Echinocloa crus-galli", "experimental": "as §1, §2, §3, §4, §5, §6\nas §5, with “I/ha” for “l/ha”"}, "SETFA": {"test_system": "SETFA", "test": "Post-emergence application in greenhouse trials", "format": "in vivo, Setaria faberi", "settings": "7 DAT, growth stage 13, 1% MSO", "experimental": "as §1, §2, §3\n(§7) The culture containers used were plastic pots containing loamy sand with approximately 3.0% of humus as substrate. The seeds of the test plants were sown separately for each species.\n(§8) For the post-emergence treatment, the test plants were grown to a plant height of from 3 to 15 cm, depending on the plant habit, and only then treated with the active compounds which had been suspended or emulsified in water. To this end, the test plants were either sown directly, and grown in the same containers, or they were first grown separately as seedlings and transplanted into the test containers a few days prior to treatment.\n(§9) Depending on the species, the plants were kept at 10-25° C. and 20-35° C., respectively.\n(§10) The test period extended over 2 to 4 weeks. During this time, the plants were tended and their response to the individual treatments was evaluated.\n(§11) Evaluation was carried out using a scale from 0 to 100. 100 means no emergence of the plants, or complete destruction of at least the above-ground parts, and 0 means no damage or normal course of growth. A good herbicidal activity is given at values of at least 70, and very good herbicidal activity is given at values of at least 85.\n(§12) Unless indicated otherwise, herbicide A and saflufenacil were formulated (50 g/I) and applied with addition of 1% MSO (methylated seed oil) as adjuvant. In the greenhouse trials, the solvent used was water (200 I/ha)."}, "[1]": {"test_system": "ZEAMX* (non-PPOi herbicide tolerant)", "test": "Post-emergence application in field trials (Examples 2 and 3)", "format": "in vivo, Zea mays", "settings": "21 DAT", "experimental": "as §1, §2, §3, §4, §5, §6\nas §5, with “I/ha” for “l/ha”"}, "AMATA": {"test_system": "AMATA", "test": "Post-emergence application in greenhouse trials", "format": "in vivo, Amaranthus tamariscinus", "settings": "20 DAT, growth stage 14, 1% MSO", "experimental": "as §1, §2, §3, §7, §8, §9, §10, §11, §12"}, "ELEIN [2]": {"test_system": "ELEIN", "test": "Post-emergence application in field trials (Examples 2 and 3)", "format": "in vivo, Eleusine indica", "experimental": "as §1, §2, §3, §4, §5, §6\nas §5, with “I/ha” for “l/ha”"}, "STEME": {"test_system": "STEME", "test": "Post-emergence application in field trials (Examples 2 and 3)", "format": "in vivo, Stellaria media", "settings": "A-1 12.5 g ai/ha, 21 DAT, growth stage 63-67, height 7-18 cm, 140 l/ha water, 1% MSO + 2.5% ammoniumsulfate", "experimental": "as §1, §2, §3, §4, §5\nas §6, with “Here, 0 means no damage and 100 means complete destruction of the plants.” left out"}, "EPHHL": {"test_system": "EPHHL", "test": "Post-emergence application in field trials (Examples 2 and 3)", "format": "in vivo, Euphorbia heterophylla", "settings": "A-1 25 g ai/ha, 21 DAT, growth stage 12-16, height 5-15 cm, 0.5% MSO", "experimental": "as §1, §2, §3, §4, §5\nas §6, with “Here, 0 means no damage and 100 means complete destruction of the plants.” left out"}, "ERICA": {"test_system": "ERICA", "test": "Post-emergence application in field trials (Examples 2 and 3)", "format": "in vivo, Erigeron canadensis", "settings": "21 DAT", "experimental": "as §1, §2, §3, §4, §5, §6\nas §5, with “I/ha” for “l/ha”"}, "COMBE": {"test_system": "COMBE", "test": "Post-emergence application in greenhouse trials", "format": "in vivo, Commelina benghalensis", "settings": "growth stage 21, 1% MSO", "experimental": "as §1, §2, §3, §7, §8, §9, §10, §11, §12"}, "[3]": {"test_system": "HORVS* (non-PPOi herbicide tolerant)", "test": "Post-emergence application in field trials (Examples 2 and 3)", "format": "in vivo, Hordeum vulgare", "settings": "1% v/v MSO", "experimental": "as §1, §2, §3, §4, §5, §6\nas §5, with “I/ha” for “l/ha”"}, "ELEIN [4]": {"test_system": "ELEIN", "test": "Post-emergence application in greenhouse trials", "format": "in vivo, Eleusine indica", "settings": "A-1 3.12 g ai/ha, 21 DAT, growth stage 21, saflufenacil as commercial 342 g/l SC formulation", "experimental": "as §1, §2, §3, §7\nas §8, with “treatment. […]” for “treatment.”\nThe test period extended over 2 to 4 weeks. During this time, the plants were tended and their response to the individual treatments was evaluated. […]"}, "LAMAN": {"test_system": "LAMAN", "test": "Post-emergence application in field trials (Examples 2 and 3)", "format": "in vivo, Lamium amplexicaule", "settings": "height 3-18 cm, A-1 solo 25 g ai/ha, 21 DAT, 1% v/v MSO and 1% AMS (ammonium sulfate)", "experimental": "as §1, §2, §3, §4, §5\nas §6, with “Here, 0 means no damage and 100 means complete destruction of the plants.” left out"}, "BRADC": {"test_system": "BRADC", "test": "Post-emergence application in field trials (Examples 2 and 3)", "format": "in vivo, Brachiaria decumbens", "settings": "growth stage 22-23, height 32-38 cm, 21 DAT, 1% Dash ® HC", "experimental": "as §1, §2, §3, §4, §5, §6\nas §5, with “I/ha” for “l/ha”"}}}
{"smiles": "CCOC(=O)COc1ccccc1Oc1nc(-n2c(=O)cc(C(F)(F)F)n(C)c2=O)c(F)cc1Cl", "note": "[A-1, ethyl 2-[2-[[3-chloro-5-fluoro-6-[3-methyl-2,6-dioxo-4-(trifluoromethyl)pyrimidin-1-yl]-2-pyridyl]oxy]phenoxy]acetate]", "values": [{"measurement": "% Herbicidal activity", "setting": "DIGSA; 19 DAT, growth stage 13-19, height 2.5-7.5 cm, 1% v/v MSO and 1% w/v ammoniumsulfate", "result": 87, "unit": "%"}, {"measurement": "% Herbicidal activity", "setting": "DIGSA; 21 DAT, height 3-12 cm, 140 l/ha water, 1% MSO + 2.5% ammoniumsulfate", "result": 50, "unit": "%"}, {"measurement": "% Herbicidal activity", "setting": "ECHCG; A-1 12.5 g ai/ha, 14 DAT, growth stage 14-19, height 2-8 cm, field, 140 l/ha water, 1% MSO + 2.5% ammoniumsulfate", "result": 75, "unit": "%"}, {"measurement": "% Herbicidal activity", "setting": "ECHCG; A-1 25 g ai/ha, 21 DAT, height 12.5-30 cm, field, 1% v/v MSO and 1% w/v ammoniumsulfate", "result": 58, "unit": "%"}, {"measurement": "% Herbicidal activity", "setting": "ECHCG; ECHCG, growth stage 21-23, height 43-44 cm, A-1 solo 30 g ai/ha, 21 DAT, 1% Dash ® HC", "result": 52, "unit": "%"}, {"measurement": "% Herbicidal activity", "setting": "SETFA; A-1 0.2 g ai/ha", "result": 35, "unit": "%"}, {"measurement": "% Herbicidal activity", "setting": "SETFA; A-1 0.3 g ai/ha", "result": 55, "unit": "%"}, {"measurement": "% Herbicidal activity", "setting": "SETFA; A-1 0.4 g ai/ha", "result": 65, "unit": "%"}, {"measurement": "% Herbicidal activity", "setting": "SETFA; A-1 0.5 g ai/ha", "result": 80, "unit": "%"}, {"measurement": "% Herbicidal activity", "setting": "[1]; A-1 12.5 g ai/ha, growth stage 15, 1% v/v MSO and 1% w/v ammoniumsulfate", "result": 40, "unit": "%"}, {"measurement": "% Herbicidal activity", "setting": "[1]; A-1 25 g ai/ha, growth stage 15, 1% v/v MSO and 1% w/v ammoniumsulfate", "result": 83, "unit": "%"}, {"measurement": "% Herbicidal activity", "setting": "[1]; A-1 50 g ai/ha, growth stage 18, 0.5% MSO", "result": 92, "unit": "%"}, {"measurement": "% Herbicidal activity", "setting": "AMATA; A-1 0.2 g ai/ha", "result": 75, "unit": "%"}, {"measurement": "% Herbicidal activity", "setting": "AMATA; A-1 0.3 g ai/ha", "result": 75, "unit": "%"}, {"measurement": "% Herbicidal activity", "setting": "ELEIN [2]; A-1 12.5 g ai/ha, 21 DAT, height 1-15 cm, 140 l/ha water, 1% MSO + 2.5% ammoniumsulfate", "result": 49, "unit": "%"}, {"measurement": "% Herbicidal activity", "setting": "ELEIN [2]; A-1 12.5 g ai/ha, 21 DAT, height 7-10 cm, 1% v/v MSO and 1% w/v ammoniumsulfate", "result": 18, "unit": "%"}, {"measurement": "% Herbicidal activity", "setting": "ELEIN [2]; A-1 12.5 g ai/ha, 21 DAT, height 15-20 cm, 1% v/v MSO and 1% w/v ammoniumsulfate", "result": 27, "unit": "%"}, {"measurement": "% Herbicidal activity", "setting": "ELEIN [2]; A-1 25 g ai/ha, 19 DAT, growth stage 24, 0.5% MSO", "result": 68, "unit": "%"}, {"measurement": "% Herbicidal activity", "setting": "ELEIN [2]; A-1 25 g ai/ha, 21 DAT, height 7-10 cm, 1% v/v MSO and 1% w/v ammoniumsulfate", "result": 78, "unit": "%"}, {"measurement": "% Herbicidal activity", "setting": "ELEIN [2]; A-1 25 g ai/ha, 21 DAT, height 15-20 cm, 1% v/v MSO and 1% w/v ammoniumsulfate", "result": 55, "unit": "%"}, {"measurement": "% Herbicidal activity", "setting": "ELEIN [2]; A-1 50 g ai/ha, 19 DAT, growth stage 24, 0.5% MSO", "result": 73, "unit": "%"}, {"measurement": "% Herbicidal activity", "setting": "STEME", "result": 83, "unit": "%"}, {"measurement": "% Herbicidal activity", "setting": "EPHHL", "result": 97, "unit": "%"}, {"measurement": "% Herbicidal activity", "setting": "ERICA; A-1 6.25 g ai/ha, height 12.5-25 cm, field, 140 l/ha water, 1% MSO + 2.5% ammoniumsulfate", "result": 7, "unit": "%"}, {"measurement": "% Herbicidal activity", "setting": "ERICA; A-1 12.5 g ai/ha, height 12.5-25 cm, field, 140 l/ha water, 1% MSO + 2.5% ammoniumsulfate", "result": 17, "unit": "%"}, {"measurement": "% Herbicidal activity", "setting": "ERICA; ERICA, height 5-10 cm, A-1 solo 25 g ai/ha, 1% v/v MSO and 1% AMS (ammonium sulfate)", "result": 60, "unit": "%"}, {"measurement": "% Herbicidal activity", "setting": "COMBE; A-1 0.2 g ai/ha, 6 DAT", "result": 15, "unit": "%"}, {"measurement": "% Herbicidal activity", "setting": "COMBE; A-1 0.2 g ai/ha, 20 DAT", "result": 40, "unit": "%"}, {"measurement": "% Herbicidal activity", "setting": "COMBE; A-1 0.4 g ai/ha, 20 DAT", "result": 75, "unit": "%"}, {"measurement": "% Herbicidal activity", "setting": "[3]; A-1 18 g ai/ha, 29 DAT, growth stage 15-24, height 25-45 cm, field, 100 l/ha water", "result": 73, "unit": "%"}, {"measurement": "% Herbicidal activity", "setting": "[3]; HORVS* (non-PPOi herbicide tolerant), growth stage 15, height 31-43 cm, A-1 solo 12.5 g ai/ha, 16 DAT", "result": 72, "unit": "%"}, {"measurement": "% Herbicidal activity", "setting": "[3]; HORVS* (non-PPOi herbicide tolerant), growth stage 15, height 31-43 cm, A-1 solo 50 g ai/ha, 16 DAT", "result": 96, "unit": "%"}, {"measurement": "% Herbicidal activity", "setting": "ELEIN [4]", "result": 80, "unit": "%"}, {"measurement": "% Herbicidal activity", "setting": "LAMAN", "result": 93, "unit": "%"}, {"measurement": "% Herbicidal activity", "setting": "BRADC; A-1 solo 30 g ai/ha", "result": 75, "unit": "%"}, {"measurement": "% Herbicidal activity", "setting": "BRADC; A-1 solo 50 g ai/ha", "result": 88, "unit": "%"}]}
